Data on 4 compounds can be found in ChEMBL document CHEMBL5727915, “Substituted [5,6]cyclic-4(3H)-pyrimidinones as anticancer agents” (2020).

SMILES strings stand for the structures.

The assay deals with CDC7/DBF4 (Cell division cycle 7-related protein kinase/Activator of S phase kinase) (Homo sapiens, UniProt O00311). The assay can be described thus: Biochemical Assay: Biochemical assay was tested in the U-shaped bottom 384 plate (corning, #4514) with a final volume of […] at 27° C. The concentration of CDC7 was optimized by the enzyme titration experiment. CDC7 kinase was diluted in assay buffer (40 mM Tris.HCl pH 7.25, 100 ug/mL BSA, and 20 mM MgCl2) to get 2.4× enzyme solutions. Compounds were dissolved in 10 mM DMSO, and series diluted in DMSO from 0.3 mM to 0.3 nM (5 concentration pts); All dilutions were diluted 30× in assay buffer to get 6× compounds solutions. MCM2 Substrate and ATP were diluted to 2.4× mixed solution. Add 2 ul test compound solution to 384 assay plate, then add 5 ul substrate/ATP mixed solution, at last add 5 ul enzyme solution, incubate at 27° C. for 180 mins. Transfer 5 ul reaction solution to another 384 assay plate, then add 5 ul ADP-Glo™ Reagent (Promega) to each well and incubate at 27° C. for 40 mins; Add 10 ul Kinase Detection Reagent (Promega) to each well and incubate at 27° C. for 30 mins. 10 uM CDC7-3 compound was used as 100% inhibition while 100% DMSO control was used as 0% inhibition. Each test has three replications at least. In kind it is protein-complex assay.
Chain of CDC7/DBF4 (Cell division cycle 7-related protein kinase/Activator of S phase kinase) (Q9UBU7 whole entry): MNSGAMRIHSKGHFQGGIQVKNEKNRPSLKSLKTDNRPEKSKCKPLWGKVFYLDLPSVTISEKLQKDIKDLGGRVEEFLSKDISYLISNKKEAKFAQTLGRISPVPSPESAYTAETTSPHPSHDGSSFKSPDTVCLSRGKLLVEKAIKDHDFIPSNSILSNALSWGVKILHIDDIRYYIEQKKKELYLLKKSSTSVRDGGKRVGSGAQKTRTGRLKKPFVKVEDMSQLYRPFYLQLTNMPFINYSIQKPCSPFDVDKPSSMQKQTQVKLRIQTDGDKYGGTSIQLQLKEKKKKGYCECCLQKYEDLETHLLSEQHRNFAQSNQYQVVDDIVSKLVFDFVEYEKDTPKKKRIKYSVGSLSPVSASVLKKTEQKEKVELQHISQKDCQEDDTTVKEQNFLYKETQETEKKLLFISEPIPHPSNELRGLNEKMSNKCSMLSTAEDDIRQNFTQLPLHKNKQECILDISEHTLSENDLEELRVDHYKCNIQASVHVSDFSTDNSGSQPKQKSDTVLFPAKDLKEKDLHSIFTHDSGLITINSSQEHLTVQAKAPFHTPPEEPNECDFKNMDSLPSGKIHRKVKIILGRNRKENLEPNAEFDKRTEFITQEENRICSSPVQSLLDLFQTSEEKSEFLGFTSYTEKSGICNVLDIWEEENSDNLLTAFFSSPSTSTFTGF
Chain of CDC7/DBF4 (Cell division cycle 7-related protein kinase/Activator of S phase kinase) (O00311 whole entry): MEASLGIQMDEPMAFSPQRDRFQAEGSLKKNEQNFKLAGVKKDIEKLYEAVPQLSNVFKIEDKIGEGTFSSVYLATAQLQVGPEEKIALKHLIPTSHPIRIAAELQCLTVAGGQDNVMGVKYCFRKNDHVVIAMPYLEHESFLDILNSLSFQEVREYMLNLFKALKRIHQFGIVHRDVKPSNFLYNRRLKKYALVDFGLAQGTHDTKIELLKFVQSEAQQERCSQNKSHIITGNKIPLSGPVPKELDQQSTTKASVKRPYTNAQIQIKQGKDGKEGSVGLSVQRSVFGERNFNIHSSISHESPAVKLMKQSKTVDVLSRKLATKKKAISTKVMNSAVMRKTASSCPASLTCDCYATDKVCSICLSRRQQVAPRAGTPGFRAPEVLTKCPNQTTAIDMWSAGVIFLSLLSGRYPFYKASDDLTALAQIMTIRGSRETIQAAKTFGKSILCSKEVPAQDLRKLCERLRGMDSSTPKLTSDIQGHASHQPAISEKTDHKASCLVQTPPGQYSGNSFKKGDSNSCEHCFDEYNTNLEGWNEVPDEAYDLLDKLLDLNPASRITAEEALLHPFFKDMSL
What is called IC50 is the midpoint of a concentration-inhibition curve. Low readings indicate higher potency, high ones lower potency. `CC(C)[C@H](N)c1nc2cc(-c3ccnc(Cl)c3)sc2c(=O)[nH]1`: the IC50 was less than 1000 nM.
The compound `Cc1cc(-c2cc3nc([C@@H](N)C(C)C)[nH]c(=O)c3s2)ccn1` registered a concentration for half-maximal inhibition (IC50) of less than 1000 nM.
In the case of `CC[C@H](N)c1nc2cc(-c3ccnc(F)c3)sc2c(=O)[nH]1`, the concentration for half-maximal inhibition (IC50) is less than 1000 nM.
Then `CN[C@H](c1nc2cc(-c3ccnc(F)c3)sc2c(=O)[nH]1)C(C)C`, with less than 10000 nM.
